Measured values: ChEMBL document CHEMBL5653607, “KN-62, 1-[N,O-bis(5-isoquinolinesulfonyl)-N-methyl-L-tyrosyl]-4-phenylpiperazi ne, a specific inhibitor of Ca2+/calmodulin-dependent protein kinase II” (J Biol Chem, 1990)
Calls of active or inactive are those of the source. The calls are words filed in the database; no cut-off is given here.

What was measured:
[1] = Inhibition of Ca2+/CaM kinase II (unknown origin); set-up: species or system Homo sapiens
[2] = Inhibition of MLC (unknown origin) assessed as inhibition constant; set-up: species or system Homo sapiens
[3] = Inhibition of Ca2+/CaM kinase II (unknown origin) assessed as inhibition constant; set-up: species or system Homo sapiens
Homo sapiens = species: Homo sapiens; assay: Inhibition of Ca2+/CaM kinase II (unknown origin) at 1 uM in presence of [gamma-33P]ATP relative to control
Gallus gallus = species: Gallus gallus; assay: Inhibition of chicken gizzard MLC at 45 uM in presence of [gamma-33P]ATP relative to control
[4] = target: Protein kinase C (PKC) (Homo sapiens) (UniProt O94806+P41743+P17252+P05129+Q05655+P05771+Q05513+Q02156+P24723+Q15139+Q04759); assay: Inhibition of protein kinase C (unknown origin) at 45 uM relative to control; type: protein assay
[5] = target: cAMP-dependent protein kinase (PKA) (Homo sapiens) (UniProt P22694+P17612+P22612); assay: Inhibition of protein kinase A (unknown origin) at 45 uM relative to control; type: protein assay
[6] = Competitive inhibition of rat brain Ca2+/CaM kinase II assessed as inhibition constant in presence of [gamma-33P]ATP and varying concentration of calmodulin; type: tissue-based
Rattus norvegicus [7] = species: Rattus norvegicus; assay: Competitive inhibition of rat brain Ca2+/CaM kinase II at 0.5 to 2.5 uM in presence of calmodulin and varying concentration of [gamma-33P]ATP; type: tissue-based; conditions: dose 0.5-2.5 µM
[8] = target: Calcium/calmodulin-dependent protein kinase type II subunit alpha (Rattus norvegicus, UniProt P11275); assay: Inhibition of rat brain Ca2+/CaM kinase II alpha subunit autophosphorylation measured after 2 mins in presence of [gamma-33P]ATP by SDS-PAGE analysis; type: tissue-based
Calcium/calmodulin-dependent protein kinase type II subunit alpha, sequence (P11275 whole entry): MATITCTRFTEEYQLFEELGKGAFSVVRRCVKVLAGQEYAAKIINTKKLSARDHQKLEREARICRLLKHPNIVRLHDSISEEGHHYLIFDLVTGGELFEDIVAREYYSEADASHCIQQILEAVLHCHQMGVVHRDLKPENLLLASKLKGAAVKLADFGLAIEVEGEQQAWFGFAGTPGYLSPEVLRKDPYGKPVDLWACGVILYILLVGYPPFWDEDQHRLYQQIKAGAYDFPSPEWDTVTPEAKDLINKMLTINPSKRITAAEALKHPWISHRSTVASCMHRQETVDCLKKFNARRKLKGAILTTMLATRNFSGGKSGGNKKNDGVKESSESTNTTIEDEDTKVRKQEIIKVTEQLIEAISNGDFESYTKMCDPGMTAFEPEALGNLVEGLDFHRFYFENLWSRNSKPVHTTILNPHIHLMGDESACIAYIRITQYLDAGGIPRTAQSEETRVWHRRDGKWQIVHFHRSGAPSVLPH

[9] = target: Calcium/calmodulin-dependent protein kinase type II subunit beta (Rattus norvegicus, UniProt P08413); assay: Inhibition of rat brain Ca2+/CaM kinase II beta subunit autophosphorylation measured after 2 mins in presence of [gamma-33P]ATP by SDS-PAGE analysis; type: tissue-based
Calcium/calmodulin-dependent protein kinase type II subunit beta, sequence (P08413 whole entry): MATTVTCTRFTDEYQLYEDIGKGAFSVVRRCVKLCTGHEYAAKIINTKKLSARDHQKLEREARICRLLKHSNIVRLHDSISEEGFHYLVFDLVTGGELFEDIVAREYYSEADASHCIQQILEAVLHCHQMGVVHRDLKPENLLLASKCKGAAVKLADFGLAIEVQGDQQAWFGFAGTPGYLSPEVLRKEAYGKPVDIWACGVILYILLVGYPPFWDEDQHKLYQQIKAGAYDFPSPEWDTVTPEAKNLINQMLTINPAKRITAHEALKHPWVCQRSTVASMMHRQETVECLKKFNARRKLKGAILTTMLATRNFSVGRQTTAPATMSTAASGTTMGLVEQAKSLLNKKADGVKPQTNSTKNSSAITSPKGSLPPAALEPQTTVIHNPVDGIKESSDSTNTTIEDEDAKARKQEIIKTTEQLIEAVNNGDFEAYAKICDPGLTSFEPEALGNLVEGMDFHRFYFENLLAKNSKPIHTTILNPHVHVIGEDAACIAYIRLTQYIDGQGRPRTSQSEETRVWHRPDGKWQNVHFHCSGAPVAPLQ

PC12D [10] = assay: Inhibition of A23187-induced Ca2+/CaM kinase II 53-kDa autophosphorylation in [32P] orthophosphate labeled rat PC12D cells preincubated with compound for 1 hr followed by A23187 induction and measured after 30 mins by immunoprecipitation method; type: cell-based; conditions: dose 0.5-1 µM, time 1.5 hrs
PC12D [11] = assay: Inhibition of A23187-induced Ca2+/CaM kinase II 53-kDa in [32P] orthophosphate labeled rat PC12D cells assessed as increase in phosphorylation at 0.5 to 1 uM preincubated with compound for 1 hr followed by A23187 induction and measured after 30 mins by immunoprecipitation method; type: cell-based; conditions: dose 0.5-1 µM, time 1.5 hrs
PC12D [12] = assay: Inhibition of A23187-induced Ca2+/CaM kinase II 40-kDa in [32P] orthophosphate labeled rat PC12D cells assessed as increase in phosphorylation at 0.5 to 1 uM preincubated with compound for 1 hr followed by A23187 induction and measured after 30 mins by immunoprecipitation method; type: cell-based; conditions: dose 0.5-1 µM, time 1.5 hrs
Rattus norvegicus [13] = species: Rattus norvegicus; assay: Binding affinity to rat brain Ca2+/CaM kinase II in presence of [gamma-33P]ATP by Sepharose coupled chromatography based analysis; type: tissue-based
[14] = Inhibition of rat brain Ca2+/CaM kinase II autophosphorylation assessed as incorporation of 32P into myosin kDa light chain measured at Pi/mg enzyme at 50 uM incubated for 1 min in presence of [gamma-33P]ATP
[15] = Inhibition of rat brain Ca2+/CaM kinase II autophosphorylation assessed as decrease in exogenous substrate phosphorylation at 50 uM incubated for 1 min in presence of [gamma-33P]ATP relative to control; set-up: scale not given: the % may be the effect or the level left
[16] = Inhibition of rat brain Ca2+/CaM kinase II autophosphorylation measured at Pi/mg enzyme after phosphorylation at 50 uM incubated for 5 min in presence of [gamma-33P]ATP
Rattus norvegicus [17] = species: Rattus norvegicus; assay: Inhibition of rat brain Ca2+/CaM kinase II autophosphorylation assessed as decrease in exogenous substrate phosphorylation at 50 uM incubated for 1 min in presence of [gamma-33P]ATP measured after phosphorylation; type: tissue-based
[18] = Inhibition of rat brain Ca2+/CaM kinase II independent activity assessed as fold increase in enzyme activity at 50 uM incubated for 1 min

Row | SMILES | IC50 [1] [µM] | Ki [2] [µM] | Ki [3] [µM] | inhibition (Homo sapiens) [%] | inhibition (Gallus gallus) [%] | inhibition [4] [%] | inhibition [5] [%] | Ki [6] [µM] | inhibition (Rattus norvegicus [7]) | IC50 [8] [µM] | IC50 [9] [µM] | inhibition (PC12D [10]) | Activity (PC12D [11]) | Activity (PC12D [12]) | Activity (Rattus norvegicus [13]) | Activity [14] [nmol] | Activity [15] [%] | Activity [16] [nmol] | Activity (Rattus norvegicus [17]) | fold change (FC) [18]
1 | NCCCCCCNS(=O)(=O)c1cccc2c(Cl)cccc12 | 15 | 18 | 7.5 |  |  |  |  |  |  |  |  |  |  |  |  |  |  |  |  | 
2 | CN([C@@H](Cc1ccc(OS(=O)(=O)c2cccc3cnccc23)cc1)C(=O)N1CCN(c2ccccc2)CC1)S(=O)(=O)c1cccc2cnccc12 |  |  |  | 80 | 12 | 12 | 22 | 0.9 | inactive | 0.45 | 1 | Dose-Dependent Effect | Active | inactive | Active | 1.8 | 75 | 8.1 | inactive | 2.5
